Measurements taken from patent publication US11590116B2 (THERAVANCE BIOPHARMA R&D IP, LLC, priority 2019, dated 2023).

How the values were obtained:
[1] = target: T1, recombinant human ALK5 (TGF-βR1) protein (Homo sapiens, UniProt P36897); assay: Biochemical ALK5 (TGF-βR1) assay to measure pKi (LANCE Ultra ULight kinase assay); conditions: apparent pKi from pIC50 by Cheng-Prusoff, read-out: ALK5 pKi (converted)
T1 construct: purchased Life Technologies PR9075A
T1 sequence (P36897 34-503): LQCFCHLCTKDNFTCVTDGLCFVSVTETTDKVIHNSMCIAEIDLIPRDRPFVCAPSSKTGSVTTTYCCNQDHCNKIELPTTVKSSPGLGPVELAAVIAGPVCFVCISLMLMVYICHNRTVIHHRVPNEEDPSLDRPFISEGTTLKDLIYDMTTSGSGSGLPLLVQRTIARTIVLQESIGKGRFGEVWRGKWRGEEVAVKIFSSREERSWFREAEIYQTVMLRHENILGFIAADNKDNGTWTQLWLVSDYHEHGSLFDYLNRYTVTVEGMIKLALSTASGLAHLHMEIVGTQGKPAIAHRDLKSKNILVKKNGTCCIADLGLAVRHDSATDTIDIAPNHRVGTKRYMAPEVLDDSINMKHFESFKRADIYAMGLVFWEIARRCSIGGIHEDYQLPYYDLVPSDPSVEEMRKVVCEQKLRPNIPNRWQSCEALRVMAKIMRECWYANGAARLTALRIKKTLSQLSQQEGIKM
Outline: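 Dose range 10 μM–25 pM; enzyme + compound 60 min RT; ATP added (5× stock 125 μM, 2 mM DTT); 60 min 37 °C; stop with EDTA + Eu anti-phospho-Topo IIα Thr1342 Ab; TR-FRET ex 320/340, em 665 nm. 4-param pIC50 → pKi (Cheng-Prusoff).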

[2] = tested on: TGF-β-stimulated SMAD3 phosphorylation in BEAS-2B cells; assay: Cellular ALK5 potency assay, inhibition of TGF-β stimulated pSMAD3 formation in BEAS-2B cells; assay type: cell-based; conditions: Homo sapiens; inhibition of TGF-β stimulated pSMAD3 formation, BEAS-2B cells; read-out: BEAS2B pIC50 (converted)
Outline: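 AlphaLISA pSMAD3 read-out, beads incubated overnight. Human BEAS-2B cells: 1 h compound preincubation (37 °C, 5% CO2), then 30 min TGF-β at 10 ng/mL final, immediate lysis. Values are pIC50 relative to stimulated, compound-free baseline.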

SMILES	Ki [1]	IC50 [2]
Cc1cccc(-c2n[nH]cc2-c2ccc3ncc(C4=CCCC4)cc3n2)n1 [Compound 88, 7-(cyclopenten-1-yl)-2-[3-(6-methyl-2-pyridyl)-1H-pyrazol-4-yl]-1,5-naphthyridine]	< 0.0316 nM	< 20 nM
Cc1cccc(-c2n[nH]cc2-c2ccc3ncc(N4CCCN(C)CC4)cc3n2)n1 [Compound 144, 7-(4-methyl-1,4-diazepan-1-yl)-2-[3-(6-methyl-2-pyridyl)-1H-pyrazol-4-yl]-1,5-naphthyridine]	0.0398 to 0.316 nM	25.1 to 158 nM
Cc1cccc(-c2n[nH]cc2-c2ccc3ncc(C4=CCC(N)CC4)cc3n2)n1 (stereo not drawn) [Compound 21, 4-[6-[3-(6-methyl-2-pyridyl)-1H-pyrazol-4-yl]-1,5-naphthyridin-3-yl]cyclohex-3-en-1-amine]	< 0.0316 nM	25.1 to 158 nM
Cc1cccc(-c2[nH]cnc2-c2ccc3ncc(Nc4ccc(N5CCN(Cc6ccccc6)CC5)cn4)cc3c2)n1 [Compound 510, N-[5-(4-benzylpiperazin-1-yl)-2-pyridyl]-6-[5-(6-methyl-2-pyridyl)-1H-imidazol-4-yl]quinolin-3-amine]	0.398 to 3.16 nM	25.1 to 158 nM
Cc1cccc(-c2[nH]nnc2-c2ccc3ncc(-c4cn[nH]c4)cc3n2)n1 [Compound 301, 2-[5-(6-methyl-2-pyridyl)-1H-triazol-4-yl]-7-(1H-pyrazol-4-yl)-1,5-naphthyridine]	0.0398 to 0.316 nM	25.1 to 158 nM
Cc1cccc(-c2[nH]ncc2-c2ccc3ncc(C(=O)N(C)C)cc3n2)n1 [Compound 85, N,N-dimethyl-6-[5-(6-methyl-2-pyridyl)-1H-pyrazol-4-yl]-1,5-naphthyridine-3-carboxamide]	3.98 to 31.6 nM	200 to 1260 nM
Cc1nc(-c2n[nH]cc2-c2ccc3ncc(NCCN4CCN(C(C)C)CC4)cc3c2)ccc1F [Compound 166, 6-[3-(5-fluoro-6-methyl-2-pyridyl)-1H-pyrazol-4-yl]-N-[2-(4-isopropylpiperazin-1-yl)ethyl]quinolin-3-amine]	0.0398 to 0.316 nM	25.1 to 158 nM
Cc1cccc(-c2[nH]cnc2-c2ccc3ncc(-c4csc(C(=O)O[C@@H]5CCNC5)c4)cc3c2)n1 [Compound 749, [(3R)-pyrrolidin-3-yl] 4-[6-[5-(6-methyl-2-pyridyl)-1H-imidazol-4-yl]-3-quinolyl]thiophene-2-carboxylate]	< 0.0316 nM	25.1 to 158 nM
Cc1cccc(-c2n[nH]cc2-c2ccc3ncc(-c4nc(C(N)=O)co4)cc3n2)n1 [Compound 480, 2-[6-[3-(6-methyl-2-pyridyl)-1H-pyrazol-4-yl]-1,5-naphthyridin-3-yl]oxazole-4-carboxamide]	0.0398 to 0.316 nM	25.1 to 158 nM
Cc1cccc(-c2[nH]cnc2-c2ccc3ncc(-c4ccc(C(=O)O[C@@H]5CCN(C)C5)nc4)cc3c2)n1 [Compound 273, (R)-1-methylpyrrolidin-3-yl 5-(6-(5-(6-methylpyridin-2-yl)-1H-imidazol-4-yl)quinolin-3-yl)picolinate]	< 0.0316 nM	25.1 to 158 nM
Cc1cccc(-c2[nH]ncc2-c2ccc3ncc(C(=O)NC4CCNCC4)cc3n2)n1 [Compound 337, 6-[5-(6-methyl-2-pyridyl)-1H-pyrazol-4-yl]-N-(4-piperidyl)-1,5-naphthyridine-3-carboxamide]	0.0398 to 0.316 nM	200 to 1260 nM
CNCc1ccnc2ccc(-c3nc[nH]c3-c3cccc(C)n3)cc12 [Compound 100, N-methyl-1-[6-[5-(6-methyl-2-pyridyl)-1H-imidazol-4-yl]-4-quinolyl]methanamine]	0.398 to 3.16 nM	25.1 to 158 nM
Cc1cccc(-c2[nH]cnc2-c2ccc3ncc(C4=CCC(NCC5CCC(=O)O5)CC4)cc3c2)n1 (stereo not drawn) [Compound 590, 5-[[[4-[6-[5-(6-methyl-2-pyridyl)-1H-imidazol-4-yl]-3-quinolyl]cyclohex-3-en-1-yl]amino]methyl]tetrahydrofuran-2-one]	0.0398 to 0.316 nM	25.1 to 158 nM
Cc1cccc(-c2[nH]cnc2-c2ccc3ncc(NCCN4CCN(C(C)C)CC4)cc3c2)n1 [Compound 467, N-[2-(4-isopropylpiperazin-1-yl)ethyl]-6-[5-(6-methyl-2-pyridyl)-1H-imidazol-4-yl]quinolin-3-amine]	0.0398 to 0.316 nM	25.1 to 158 nM
Cc1nc(-c2n[nH]cc2-c2ccc3ncc(-c4nc5c([nH]4)CCNCC5)cc3n2)ccc1F [Compound 611, 2-[6-[3-(5-fluoro-6-methyl-2-pyridyl)-1H-pyrazol-4-yl]-1,5-naphthyridin-3-yl]-1,4,5,6,7,8-hexahydroimidazo[4,5-d]azepine]	< 0.0316 nM	1580 to 10000 nM

Continued, in another order:

Ki [1]	SMILES	IC50 [2]
0.0398 to 0.316 nM	Cc1cccc(-c2[nH]cnc2-c2ccc3ncc(-c4cccc(C(=O)OCCN5CCNCC5)n4)cc3c2)n1 [Compound 1151, 2-piperazin-1-ylethyl 6-[6-[5-(6-methyl-2-pyridyl)-1H-imidazol-4-yl]-3-quinolyl]pyridine-2-carboxylate]	200 to 1260 nM
0.0398 to 0.316 nM	Cc1cccc(-c2[nH]ncc2-c2ccc3ncc(C(=O)OCCN4CCNCC4)cc3c2)n1 [Compound 876, 2-(piperazin-1-yl)ethyl 6-(5-(6-methylpyridin-2-yl)-1H-pyrazol-4-yl)quinoline-3-carboxylate]	< 20 nM
< 0.0316 nM	Cc1cccc(-c2[nH]cnc2-c2ccc3ncc(C4=CCC5(CCNC(=O)C5)CC4)cc3c2)n1 (stereo not drawn) [Compound 1206, 9-[6-[5-(6-methyl-2-pyridyl)-1H-imidazol-4-yl]-3-quinolyl]-3-azaspiro[5.5]undec-9-en-4-one]	25.1 to 158 nM
0.398 to 3.16 nM	Cc1cccc(-c2[nH]cnc2-c2ccc3nccc(C(=O)O[C@H]4C[C@@H](N)C4)c3c2)n1 [Compound 1042, (3-aminocyclobutyl) 6-[5-(6-methyl-2-pyridyl)-1H-imidazol-4-yl]quinoline-4-carboxylate]	25.1 to 158 nM
0.0398 to 0.316 nM	Cc1cccc(-c2[nH]cnc2-c2ccc3ncc(-c4csc(C(=O)OCC5CNC5)c4)cc3c2)n1 [Compound 753, azetidin-3-ylmethyl 4-(6-(5-(6-methylpyridin-2-yl)-1H-imidazol-4-yl)quinolin-3-yl)thiophene-2-carboxylate]	25.1 to 158 nM
0.0398 to 0.316 nM	Cc1cccc(-c2[nH]cnc2-c2ccc3ncc(-c4ccnc(C(=O)OC5CNC5)c4)cc3c2)n1 [Compound 1133, azetidin-3-yl 4-[6-[5-(6-methyl-2-pyridyl)-1H-imidazol-4-yl]-3-quinolyl]pyridine-2-carboxylate]	200 to 1260 nM
0.398 to 3.16 nM	Cc1cccc(-c2n[nH]cc2-c2ccc3nccc(CCC(=O)N4CCOCC4)c3n2)n1 [Compound 810, 3-[6-[3-(6-methyl-2-pyridyl)-1H-pyrazol-4-yl]-1,5-naphthyridin-4-yl]-1-morpholino-propan-1-one]	200 to 1260 nM
< 0.0316 nM	Cc1cccc(-c2[nH]cnc2-c2ccc3ncc(-c4csc(C(=O)OC[C@@H]5CCC[C@@H](N)C5)c4)cc3c2)n1 (racemic) [Compound 1215, [rac-(1R,3R)-3-aminocyclohexyl]methyl 4-[6-[5-(6-methyl-2-pyridyl)-1H-imidazol-4-yl]-3-quinolyl]thiophene-2-carboxylate]	25.1 to 158 nM
0.0398 to 0.316 nM	Cc1cccc(-c2[nH]ncc2-c2ccc3nccc(C(=O)OC4CNC4)c3c2)n1 [Compound 1237, azetidin-3-yl 6-[5-(6-methyl-2-pyridyl)-1H-pyrazol-4-yl]quinoline-4-carboxylate]	25.1 to 158 nM
